Laboratory results as given in patent US20230331792A1, “NEW MULTI-FUNCTIONAL OLIGOPEPTIDES” (ENLITISA (SHANGHAI) PHARMACEUTICAL CO., LTD., priority 2019, published 2023).
Square brackets hold non-standard residues; d marks the D form. Ends that are not written are not given here. Dopa = N[C@@H](Cc1ccc(O)c(O)c1)C(=O)O; Hyp = O=C(O)[C@@H]1C[C@@H](O)CN1

How the values were obtained:
patient = test: Radiation injury in the nasal cavity, patient case; format: in vivo, human
Protocol: A patient was diagnosed with paranasal sinus cancer and received radiation therapy. After two weeks treatment, they had inflammation of the nose and sinuses and felt like their nose was blocked or stuffy. The mucus in the nasal cavity and paranasal sinuses became thick and dry.
The patient used a nasal spray comprising Compound B (see Example 7 above) dissolved in water at a concentration of 0.5 mg/mL and then packed into a nasal spray bottle, once every two hours during daytime.

person one = test: Pain and bleeding after an operation, patient case; format: in vivo, human
Protocol: Immediately after the operation, they used 0.5 mg/mL of Compound B spray (as described in Example 38 but packed into a normal spray bottle) to apply directly on the wound. The right pane in FIG. 10 was taken 1 hour after operation. […] The physician said that it would normally take a patient at least ten days to fully recover from such a procedure with standard care.

C57BL/6 mice = test: Air pouch model (carrageenan-induced acute inflammation); format: in vivo; set-up: key to Inflammation score / Edema score: 1 = mild, 2 = moderate, 3 = severe
Protocol: Healthy adult male C57BL/6 mice weighing between 20 and 30 g were supplied by Changzhou Cvens Experimental Animal Co. Ltd. Prior to any experiments being conducted, the mice were housed under standardized conditions (at a constant temperature or 22±2° C., with alternating 12-hour periods of light and darkness), and were fed on a standard mouse diet with water, for about a week. The mice were randomly divided into 9 groups as described in Table 4, with 7 mice in each group.
General anaesthesia was induced using intraperitoneal delivery of 3% chloral hydrate (Sinopharm Chemical Reagent Co., Ltd., Shanghai, China); 1 mL/10 g of body weight). The hair of the entire dorsum was shaved and depilated one day before sterile air injection.
Air pouches were produced by subcutaneous injection of sterile air (5 mL) into the intrascapular area of the mice. After three days, another injection of air (3 mL) was performed to maintain the pouches. In order to induce acute inflammation, three days after the second injection, animals received an injection of sterile carrageenan solution (CP Kelco, Taixing, Jiangsu Province, China; 1%, 0.5 mL; produced by adding 0.1 g of carrageenan powder into a beaker containing 10 mL of 0.9% saline solution and stirring). Mice were pre-treated with test samples or vehicle 1 hour before and 23 hours after the carrageenan injection into the subcutaneous air pouch. Animals were sacrificed 24 hours after the carrageenan injection.
Skin biopsies were taken from the air pouches. A part of the biopsy was fixed in formalin (produced by adding ultra-pure water to 50 mL of a 40% formaldehyde solution (Nanchang Rain Dew Experimental Equipment Co., Ltd., Nanchang, […] Provence, China) up to a total volume of 500 mL) and analyzed by histological embedding in paraffin wax, sectioning and staining.
The histological specimens were analyzed, and an inflammation score and an edema score were estimated. The inflammation scores were estimated by observing heamatoxylin and eosin (HE) stained slices under an optical microscope. Scores (between 1 to 3 points) were given according to the perceived inflammation level (e.g. in cases where only a small amount of inflammatory cells scattered in the area: 1 point was given (mild); in cases where many inflammatory cells were observed: 2 points were given (moderate); and, in cases with diffuse infiltration: 3 points were given (severe)). A similar scoring system was employed for edema levels (3 points for most severe and 1 point for mild) after overall observation.
After conducting some preliminary experiments to validate the model, an experiment was conducted in which mice were treated by administering test samples or vehicle in accordance with Table 4 below. Compound A and Compound B were dissolved in saline at concentrations indicated in Table 4 below (L=low dose, M=medium dose, H=high dose).
Compound A and Compound B were synthesized as described in Examples 8 and 7 above, respectively. The peptide powders were stored at −20° C. prior to use. Dexamethasone (Dex) was obtained from Shanghai Aladdin Bio-Chem Technology Co., Ltd., Shanghai, China.

Sprague Dawley (SD) rats = test: Croton oil-induced anal swelling model in rats I (Evans blue content); format: in vivo; conditions: gel 0.5 and 1 mg/g, 200 μL twice a day for three days
Protocol: A croton oil mixture was prepared by mixing one part distilled water, four parts of pyridine (Nanjing Chemical Reagent Co., Ltd.), five parts of ether (China Pharmaceutical Group Chemical Reagents Co., Ltd.) and ten parts of 6% croton oil (Shanghai Yuanye Biotechnology Co., Ltd.) ether solution.
6-8 weeks old Sprague Dawley (SD) rats with average body weights of 180-220 g were supplied by Changzhou Cvens Experimental Animal Co. Ltd. (Changzhou, Jiangsu Province, China), half male and half female. Prior to any experiments being conducted, rats were housed under standardized conditions (at a constant temperature of 22±2° C., with alternating 12-hour periods of light and darkness) and were fed on a standard mouse diet with water, for about a week.
56 rats were randomly divided into 7 groups (as shown in Table 11 below), with 8 rats in each group. Compound A, Compound B and MaYinglong hemorrhoids ointment were dissolved at concentrations indicated in Table 11 below (L=low dose, M=medium dose, H=high dose).
The rats were anesthetized by isoflurane (China Pharmaceutical Group Chemical Reagents Co., Ltd.) inhalation. 75% alcohol cotton ball was used to disinfect the skin around the anus. […]
All samples were transferred to a 55° C. water bath or a heat block. […] Absorbance was measured at 610 nm, using 500 μL of formamide as a blank. […]

[1] = 0.5 mg/mL spray directly on the wound, 1 hour after operation

## {[(Ala-Lys-Pro-Ser-Tyr-Hyp-Hyp-Thr-DOPA-Lys)2-Lys]2-Lys}2-Lys (AKPSY[Hyp][Hyp]T[Dopa]KKKK; also: branched lysine dendrimer {[(peptide)2-Lys]2-Lys}2-Lys) [Compound B]
patient; nasal spray 0.5 mg/mL once every two hours during daytime, three days later
  blocked or stuffy nose: nose became clear and was no longer stuffy
patient; nasal spray 0.5 mg/mL, continuous use
  nasal discomfort during continued radiation therapy: nasal discomfort did not worsen
Person one; [1]
  bleeding of operative wound: bleeding had stopped
  pain of operative wound: only slight pain was felt
Person one; 0.5 mg/mL spray, one week later (standard care: at least ten days)
  wound recovery: the wound was fully recovered
C57BL/6 mice; low dose 50 μg/mouse
  Edema score: 2.00
  Inflammation score: 1.83
  Sum of the scores: 3.83
C57BL/6 mice; medium dose 250 μg/mouse
  Edema score: 2.14
  Inflammation score: 1.80
  Sum of the scores: 3.94
Sprague Dawley (SD) rats
  inflammatory swelling, EB content in rectal and anal tissues (FIG. 5): may reduce inflammatory swelling caused by croton oil application

## {[(Dopa-Ala-Lys-Pro-Ser-Tyr-Hyp-Hyp-Thr-Tyr-Lys)2-Lys]2-Lys}2-Lys ([Dopa]AKPSY[Hyp][Hyp]TYKKKK; also: branched lysine dendrimer {[(peptide)2-Lys]2-Lys}2-Lys) [Compound A]
C57BL/6 mice; low dose 50 μg/mouse
  Edema score: 1.71
  Inflammation score: 1.86
  Sum of the scores: 3.57
C57BL/6 mice; medium dose 250 μg/mouse
  Edema score: 1.57
  Inflammation score: 1.57
  Sum of the scores: 3.14
Sprague Dawley (SD) rats
  inflammatory swelling, EB content in rectal and anal tissues (FIG. 5): may reduce inflammatory swelling caused by croton oil application
